Columns and labels:
Test in all cases: relative viability (nuclei count vs DMSO), 5 days (fraction); higher = more cells survive
[1] = compound: COc1cc2nccc(Oc3ccc(NC(=O)C4(C(=O)Nc5ccc(F)cc5)CC4)cc3)c2cc1OC [Cabozantinib] + CC(C)C[C@H](NC(=O)[C@H](Cc1ccccc1)NC(=O)c1cnccn1)B(O)O [Bortezomib] (partner 0.002 µM)
Procedure, shortened: (§1)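 The day after seeding in 1536-well plates, lung cancer cell lines were treated by pin tool with a single drug, or with a fixed anchor-drug dose together with five library-drug doses (not always all listed) in √10 steps. After 5 days, a combined fix-and-stain solution (final 0.05% Triton X-100, 1% formaldehyde, 1 ug/ml Hoechst) was added. Nuclei counted on 4× images gave relative viability as treated counts over vehicle counts, reported as the median of duplicate plates.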

Kobe2602 + Lapatinib = compound: C1=CC(=CC=C1NC(=S)NNC2=C(C=C(C=C2[N+](=O)[O-])C(F)(F)F)[N+](=O)[O-])F [Kobe2602] + CS(=O)(=O)CCNCc1ccc(-c2ccc3ncnc(Nc4ccc(OCc5cccc(F)c5)c(Cl)c4)c3c2)o1 [Lapatinib] (partner 2 µM)
Procedure, shortened: as §1

Kobe2602 + Navitoclax = compound: C1=CC(=CC=C1NC(=S)NNC2=C(C=C(C=C2[N+](=O)[O-])C(F)(F)F)[N+](=O)[O-])F [Kobe2602] + CC1(C)CCC(c2ccc(Cl)cc2)=C(CN2CCN(c3ccc(C(=O)NS(=O)(=O)c4ccc(N[C@H](CCN5CCOCC5)CSc5ccccc5)c(S(=O)(=O)C(F)(F)F)c4)cc3)CC2)C1 [Navitoclax] (partner 0.5 µM)
Procedure, shortened: as §1

[2] = compound: COc1cc2nccc(Oc3ccc(NC(=O)C4(C(=O)Nc5ccc(F)cc5)CC4)cc3)c2cc1OC [Cabozantinib] + C[C@]1(O)C[C@@H](c2nc(-c3ccc4ccc(-c5ccccc5)nc4c3)c3c(N)nccn32)C1 [Linsitinib] (partner 1 µM)
Procedure, shortened: as §1

## NCI-H322M
[1]; first compound 0.02 µM
  relative viability: 1.2
[1]; first compound 0.06325 µM
  relative viability: 1.34
[1]; first compound 0.6325 µM
  relative viability: 1.17
[1]; first compound 2 µM
  relative viability: 1.36
Kobe2602 + Lapatinib; first compound 0.2 µM
  relative viability: 0.588
Kobe2602 + Lapatinib; first compound 0.6325 µM
  relative viability: 0.648
Kobe2602 + Lapatinib; first compound 2 µM
  relative viability: 0.652
Kobe2602 + Lapatinib; first compound 6.325 µM
  relative viability: 0.571
Kobe2602 + Lapatinib; first compound 20 µM
  relative viability: 0.647
Kobe2602 + Navitoclax; first compound 0.2 µM
  relative viability: 1.28
Kobe2602 + Navitoclax; first compound 0.6325 µM
  relative viability: 1.31
Kobe2602 + Navitoclax; first compound 2 µM
  relative viability: 1.25
Kobe2602 + Navitoclax; first compound 6.325 µM
  relative viability: 1.26
Kobe2602 + Navitoclax; first compound 20 µM
  relative viability: 0.631
[2]; first compound 0.02 µM
  relative viability: 0.95
[2]; first compound 0.06325 µM
  relative viability: 1
[2]; first compound 0.6325 µM
  relative viability: 0.96
[2]; first compound 2 µM
  relative viability: 0.954

## NCI-H647
[1]; first compound 0.02 µM
  relative viability: 1.17
[1]; first compound 0.06325 µM
  relative viability: 1.17
[1]; first compound 0.2 µM
  relative viability: 1.19
[1]; first compound 0.6325 µM
  relative viability: 0.893
[1]; first compound 2 µM
  relative viability: 1.13
Kobe2602 + Lapatinib; first compound 0.2 µM
  relative viability: 1.09
Kobe2602 + Lapatinib; first compound 0.6325 µM
  relative viability: 0.937
Kobe2602 + Lapatinib; first compound 2 µM
  relative viability: 0.943
Kobe2602 + Lapatinib; first compound 6.325 µM
  relative viability: 0.938
Kobe2602 + Lapatinib; first compound 20 µM
  relative viability: 1.01
Kobe2602 + Navitoclax; first compound 0.2 µM
  relative viability: 1.16
Kobe2602 + Navitoclax; first compound 0.6325 µM
  relative viability: 1.1
Kobe2602 + Navitoclax; first compound 2 µM
  relative viability: 1.06
Kobe2602 + Navitoclax; first compound 6.325 µM
  relative viability: 1.04
Kobe2602 + Navitoclax; first compound 20 µM
  relative viability: 1.13
[2]; first compound 0.02 µM
  relative viability: 1.28
[2]; first compound 0.06325 µM
  relative viability: 1.53
[2]; first compound 0.2 µM
  relative viability: 1.33
[2]; first compound 0.6325 µM
  relative viability: 1.12
[2]; first compound 2 µM
  relative viability: 1.11

## NCI-H1792
[1]; first compound 0.02 µM
  relative viability: 0.848
[1]; first compound 0.06325 µM
  relative viability: 1.19
[1]; first compound 0.2 µM
  relative viability: 0.858
[1]; first compound 0.6325 µM
  relative viability: 0.946
[1]; first compound 2 µM
  relative viability: 0.975
Kobe2602 + Lapatinib; first compound 0.2 µM
  relative viability: 0.963
Kobe2602 + Lapatinib; first compound 0.6325 µM
  relative viability: 0.878
Kobe2602 + Lapatinib; first compound 2 µM
  relative viability: 0.992
Kobe2602 + Lapatinib; first compound 6.325 µM
  relative viability: 0.928
Kobe2602 + Lapatinib; first compound 20 µM
  relative viability: 0.978
Kobe2602 + Navitoclax; first compound 0.2 µM
  relative viability: 0.67
Kobe2602 + Navitoclax; first compound 0.6325 µM
  relative viability: 0.626
Kobe2602 + Navitoclax; first compound 2 µM
  relative viability: 0.604
Kobe2602 + Navitoclax; first compound 6.325 µM
  relative viability: 0.609
Kobe2602 + Navitoclax; first compound 20 µM
  relative viability: 0.695
[2]; first compound 0.02 µM
  relative viability: 0.669
[2]; first compound 0.06325 µM
  relative viability: 0.588
[2]; first compound 0.2 µM
  relative viability: 0.511
[2]; first compound 0.6325 µM
  relative viability: 0.483
[2]; first compound 2 µM
  relative viability: 0.496

## NCI-H1755
[1]; first compound 0.02 µM
  relative viability: 0.962
[1]; first compound 0.06325 µM
  relative viability: 1
[1]; first compound 0.2 µM
  relative viability: 0.903
[1]; first compound 0.6325 µM
  relative viability: 0.895
[1]; first compound 2 µM
  relative viability: 0.928
Kobe2602 + Lapatinib; first compound 0.2 µM
  relative viability: 1.01
Kobe2602 + Lapatinib; first compound 0.6325 µM
  relative viability: 1.03
Kobe2602 + Lapatinib; first compound 2 µM
  relative viability: 0.951
Kobe2602 + Lapatinib; first compound 6.325 µM
  relative viability: 1.02
Kobe2602 + Lapatinib; first compound 20 µM
  relative viability: 1.09
Kobe2602 + Navitoclax; first compound 0.2 µM
  relative viability: 0.999
Kobe2602 + Navitoclax; first compound 0.6325 µM
  relative viability: 0.995
Kobe2602 + Navitoclax; first compound 2 µM
  relative viability: 0.969
Kobe2602 + Navitoclax; first compound 6.325 µM
  relative viability: 0.96
Kobe2602 + Navitoclax; first compound 20 µM
  relative viability: 0.926
[2]; first compound 0.02 µM
  relative viability: 0.982
[2]; first compound 0.06325 µM
  relative viability: 0.967
[2]; first compound 0.2 µM
  relative viability: 0.965
[2]; first compound 0.6325 µM
  relative viability: 0.841
[2]; first compound 2 µM
  relative viability: 0.834

## EPLC-272H
[1]; first compound 0.02 µM
  relative viability: 0.98
[1]; first compound 0.06325 µM
  relative viability: 0.937
[1]; first compound 0.2 µM
  relative viability: 0.756
[1]; first compound 0.6325 µM
  relative viability: 1.04
[1]; first compound 2 µM
  relative viability: 1.04
Kobe2602 + Lapatinib; first compound 0.2 µM
  relative viability: 1.05
Kobe2602 + Lapatinib; first compound 0.6325 µM
  relative viability: 0.956
Kobe2602 + Lapatinib; first compound 2 µM
  relative viability: 0.916
Kobe2602 + Lapatinib; first compound 6.325 µM
  relative viability: 0.853
Kobe2602 + Lapatinib; first compound 20 µM
  relative viability: 1.01
Kobe2602 + Navitoclax; first compound 0.2 µM
  relative viability: 1.07
Kobe2602 + Navitoclax; first compound 0.6325 µM
  relative viability: 1.17
Kobe2602 + Navitoclax; first compound 2 µM
  relative viability: 1.21
Kobe2602 + Navitoclax; first compound 6.325 µM
  relative viability: 1.45
Kobe2602 + Navitoclax; first compound 20 µM
  relative viability: 0.045
[2]; first compound 0.02 µM
  relative viability: 1.3
[2]; first compound 0.06325 µM
  relative viability: 1.05
[2]; first compound 0.2 µM
  relative viability: 1.03
[2]; first compound 0.6325 µM
  relative viability: 1.06
[2]; first compound 2 µM
  relative viability: 1.17

## NCI-H2228
[1]; first compound 0.02 µM
  relative viability: 1.04
[1]; first compound 0.06325 µM
  relative viability: 1.47
[1]; first compound 0.2 µM
  relative viability: 1.33
[1]; first compound 0.6325 µM
  relative viability: 1.11
[1]; first compound 2 µM
  relative viability: 0.926
Kobe2602 + Lapatinib; first compound 0.2 µM
  relative viability: 1.08
Kobe2602 + Lapatinib; first compound 0.6325 µM
  relative viability: 1.02
Kobe2602 + Lapatinib; first compound 2 µM
  relative viability: 0.985
Kobe2602 + Lapatinib; first compound 6.325 µM
  relative viability: 1.12
Kobe2602 + Lapatinib; first compound 20 µM
  relative viability: 1.75
Kobe2602 + Navitoclax; first compound 0.2 µM
  relative viability: 1.08
Kobe2602 + Navitoclax; first compound 0.6325 µM
  relative viability: 0.621
Kobe2602 + Navitoclax; first compound 2 µM
  relative viability: 0.69
Kobe2602 + Navitoclax; first compound 6.325 µM
  relative viability: 0.743
Kobe2602 + Navitoclax; first compound 20 µM
  relative viability: 0.841
[2]; first compound 0.02 µM
  relative viability: 0.939
[2]; first compound 0.06325 µM
  relative viability: 1.32
[2]; first compound 0.2 µM
  relative viability: 0.611
[2]; first compound 0.6325 µM
  relative viability: 0.716
[2]; first compound 2 µM
  relative viability: 0.542
